Measured values published in article PMC9731865, “Gambogic acid and juglone inhibit RNase P through distinct mechanisms” (The Journal of Biological Chemistry, 2022).
Several values for one entry are separate records, joined by “and”; a condition that tells them apart may be missing. Identical values can stand only once. Like-named read-outs stand apart in the source and are kept apart here.

How the values were obtained:
Type in all cases: biochemical, A. thaliana
PRORP1 = molecular target: T1, PRORP1 (Arabidopsis thaliana, UniProt Q66GI4); assay: Mode of inhibition of gambogic acid, PRORP1 activity at varying pre-tRNA and inhibitor
T1 construct: made in house
T1 sequence (Q66GI4 77-572): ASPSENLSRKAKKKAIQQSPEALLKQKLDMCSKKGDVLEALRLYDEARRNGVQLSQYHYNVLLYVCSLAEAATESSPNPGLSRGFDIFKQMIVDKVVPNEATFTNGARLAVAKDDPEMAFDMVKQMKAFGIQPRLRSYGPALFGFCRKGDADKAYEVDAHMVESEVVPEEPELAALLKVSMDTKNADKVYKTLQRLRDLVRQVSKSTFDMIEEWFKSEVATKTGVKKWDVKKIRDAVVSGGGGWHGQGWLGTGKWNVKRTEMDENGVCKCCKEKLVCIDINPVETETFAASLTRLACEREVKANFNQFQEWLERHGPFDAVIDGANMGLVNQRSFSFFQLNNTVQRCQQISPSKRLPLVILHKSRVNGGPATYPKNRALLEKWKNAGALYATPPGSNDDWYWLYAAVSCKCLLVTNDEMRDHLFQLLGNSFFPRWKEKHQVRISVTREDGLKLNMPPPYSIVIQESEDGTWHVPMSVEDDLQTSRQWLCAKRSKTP
Procedure: Equation 2 was fit to each data set to calculate the values of kcat,app, and KM,app, and (kcat/KM)app. […] The dotted line simulates the fit of Equation 3 with n = 1. C, kcat/KM,app values for PRORP1 activity vary little as a function of the gambogic acid concentration. Error bars indicate standard errors obtained from fitting the data.
To identify the mode of inhibition of gambogic acid, PRORP1 activity was measured with varying pre-tRNA and gambogic acid concentrations. The Michaelis–Menten equation (Equation 2) was fit to each curve individually to calculate the apparent turnover rate constant (kcat,app) and apparent substrate concentration at half maximal activity (KM,app). […] (3) kcat,app=kcat/1+([I]/KI)^n (4) KM,app=KM/1+([I]/KI)^n

PRORP1 C373A = molecular target: T2, PRORP1 C373A (Arabidopsis thaliana, UniProt Q66GI4, C373A); assay: Time-dependent inactivation by juglone, PRORP1 C373A
T2 construct: made in house
Procedure: Given the multiple sites of cysteine modification, we wanted to identify the one(s) that potentially play a significant role in PRORP1 inactivation. Therefore, several cysteine-to-alanine point mutants were expressed, purified, and subjected to inhibition studies. We tested both single-site (C353A and C373A) and double-site (C353A/C373A and C222A/C353A) mutations. […] The value of kinact,app for each PRORP1 at varied concentrations of juglone was determined by fitting a single exponential equation (Equation 5) to the data (Fig. 10A). Unexpectedly, the values of kinact/KI (reflecting the inhibition of E + I to form EI∗) increased for a number of the PRORP1 variants: wildtype (0.001 ± 0.00004 μM^-1 min^-1), C353A (0.005 ± 0.002 μM^−1 min^−1), C373A (0.002 ± 0.0004 μM^-1 min^−1), C222A/C353A (0.003 ± 0.0001 μM^−1 min^−1), and C353A/C373A (0.0008 ± 0.0002 μM^-1 min^−1). These modest increases could be due to a decrease in the KI value or an increase in the value of kinact. […] Although, we cannot discount the possibility, however unlikely, that juglone may employ a mode of inhibition beyond cysteine residue modification that our crystal structures fail to capture.
Figure 10 Effects of PRORP1 cysteine mutations on juglone inactivation. […]
For the analysis of juglone, PRORP1 activity was measured with varying preincubation time and juglone concentration. […]

PRORP1 wildtype = molecular target: T3, PRORP1 wildtype (Arabidopsis thaliana, UniProt Q66GI4); assay: Time-dependent inactivation of PRORP1 by juglone (varying preincubation time); conditions: for kinact/KI: wildtype PRORP1, 0.3 nM PRORP1, 250 nM pre-tRNA, 22 °C
T3 construct: made in house
T3 sequence (Q66GI4 77-572): T1 sequence (Q66GI4 77-572)
Procedure: A global fit of the data (Equations 5 and 6) was used to calculate kinact/KI. […] The errors shown are the standard errors obtained from fitting Equation 5 to the data in A independently. Reactions were performed with 0.3 nM PRORP1, 250 nM pre-tRNA containing 40 nM Fl-pre-tRNA, at 22 °C, in 30 mM MOPS, pH 7.8, 1 mM TCEP, 5 mM MgCl2, 500 nM (12 μg/ml) yeast tRNA, 5 mM spermidine, 6.65 μg/ml BSA, and 0.01% NP-40. Data are fit to determine kinact/KI.
For the analysis of juglone, PRORP1 activity was measured with varying preincubation time and juglone concentration. Varying concentrations of juglone were preincubated with a 35 μl of PRORP1 from 2 min to 4 h in 30 mM MOPS pH 7.8, 5 mM MgCl2, 100 mM NaCl, 1 mM TCEP, 500 nM (12 μg/ml) yeast tRNA^mix, 5 mM spermidine, 6.65 μg/ml BSA, and 0.01% NP-40. The concentration of DMSO in each reaction was held constant at 1%. Reactions were initiated by addition of 5 μl of substrate for a final working concentration of 0.3 nM PRORP1 and 250 nM pre-tRNA, a substrate concentration well below the KM value. The dependence of the initial velocity on the preincubation time was fit to a single exponential decay equation (Equation 5) to determine kinact,app at each juglone concentration. The values for kinact,app for various juglone concentrations (represented by [I]) were fit with Equation 6 to determine kinact/KI, assuming a 2-step inactivation mechanism.(5) Activity(%)=Ae^−(kinact,app)t (6) kinact,app=kinact/KI(KI[I]/KI+[I])

T2 sequence (Q66GI4 77-572 C373A): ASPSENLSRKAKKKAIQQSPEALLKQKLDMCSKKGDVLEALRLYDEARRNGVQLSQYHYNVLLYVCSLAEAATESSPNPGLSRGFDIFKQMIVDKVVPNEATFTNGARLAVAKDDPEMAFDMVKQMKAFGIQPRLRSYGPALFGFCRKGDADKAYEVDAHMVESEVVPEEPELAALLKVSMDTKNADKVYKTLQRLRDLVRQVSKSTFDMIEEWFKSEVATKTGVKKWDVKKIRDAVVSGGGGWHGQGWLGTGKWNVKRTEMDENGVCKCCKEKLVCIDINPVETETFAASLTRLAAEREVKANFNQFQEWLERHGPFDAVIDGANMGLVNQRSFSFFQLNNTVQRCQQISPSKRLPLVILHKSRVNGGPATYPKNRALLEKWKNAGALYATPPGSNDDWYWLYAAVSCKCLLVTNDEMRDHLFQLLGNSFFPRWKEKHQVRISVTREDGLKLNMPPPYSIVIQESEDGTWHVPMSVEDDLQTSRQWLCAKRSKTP

Compound	Hill coefficient (n), fit of Equation 3 (PRORP1; dependence of kcat,app on gambogic acid concentration)	Ki (PRORP1; global fit, read-out: KI, global fit analysis (Equations 2, 3, 4)) [nM]	mode of inhibition of PRORP1 (PRORP1; kcat,app decreases, (kcat/KM)app unchanged)	Ki (PRORP1; uncompetitive model, gambogic acid 0-1.6 μM, read-out: inhibition constant (KI), fit of Equation 3 to kcat,app) [nM]	Ki (PRORP1 C373A) [µM]	kinact/KI (PRORP1 C373A) [M⁻¹ s⁻¹]	Ki (PRORP1 wildtype) [µM]	decrease in initial activity (extrapolated to 0 min preincubation) (PRORP1 wildtype; 10 μM juglone (highest concentration)) [%]	Hill coefficient n of the fit to 0-min preincubation data (PRORP1 wildtype; Equation 1)	mode of inhibition of PRORP1 (PRORP1 wildtype; inhibition depends on preincubation time)	kinact/KI (PRORP1 wildtype; read-out: kinact/KI, global fit using Equations 5 and 6 (converted)) [M⁻¹ s⁻¹]	kinact/KI (PRORP1 wildtype; read-out: kinact/KI, hyperbolic fit using Equation 6 (converted)) [M⁻¹ s⁻¹]
CC(C)=CCC[C@]1(C)C=Cc2c(O)c3c(c(CC=C(C)C)c2O1)O[C@]12C(=C[C@@H]4C[C@H]1C(C)(C)O[C@@]2(C/C=C(/C)C(=O)O)C4=O)C3=O [gambogic acid]	4 and 3.8 ± 0.8	1100 ± 30	uncompetitive inhibitor	1080 ± 50								
O=C1C=CC(=O)c2c(O)cccc21 [juglone, 5-hydroxy-1,4-naphthalenedione]					> 10	33.3	12.5 ± 2.7	50	1	time-dependent inhibitor	16.7	16.7
